Experimental data reported in US20250281424A1 (New York Blood Center, Inc, priority 2020, published 2025).

Target: T1, human PF4 (Homo sapiens, UniProt P02776)
T1 construct: PF4 is a 70 amino acid, lysine-rich 7.8 kDa platelet-specific protein; made in house; host or cells: Escherichia coli BL21DE3 pLysS (pT7-7) and/or Drosophila S2 cells
T1 sequence (P02776 32-101): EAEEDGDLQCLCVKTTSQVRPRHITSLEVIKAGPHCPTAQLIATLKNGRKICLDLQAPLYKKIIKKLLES
Assay: Inhibition of PF4 tetramer formation (BS3 cross-linking, SDS-PAGE)
Type: biochemical
Conditions: for inhibition at 5 µM: 5 μM inhibitor; for inhibition at 5 µM / inhibition at 10 µM / inhibition at 1 µM / inhibition at 3 µM: read-out: % inhibition of PF4 tetramer formation at single concentration of inhibitor; for inhibition at 10 µM: 10 μM inhibitor (column A); for IC50: read-out: IC50 of PF4 tetramer formation inhibition; for inhibition at 1 µM: 1 μM inhibitor; for inhibition at 3 µM: 3 μM inhibitor (column A)
Experimental: Compounds of Examples 1-38, 65-301, 303, 305, 307, 309, 311, 313, 314, 316, and 318-404 were tested using SDS PAGE analysis of BS3 crosslinked PF4 for their ability to prevent PF4 tetramer formation. […] See, Suvarna et al., Throm. Res, 122:211-220 (2008), which is hereby incorporated by reference, at least for a detailed description of this technique.
cDNA encoding human PF4 was cloned into the plasmid μMT/BiPN5-His A (Invitrogen Corp., Carlsbad CA) for expression in the Drosophila Expression System (Invitrogen, Carlsbad, CA). Cloning was performed using Bg1 II and Age I cloning sites. A hexanucleotide encoding Bg1 II site was then eliminated by site-directed mutagenesis so that the expressed protein contained full-length wild type (wt) PF4 or PF4^K50E with an identical sequence as their counterparts expressed in E. coli. See, method described in Sachais et al (Sachais, B. S. et al. (2012). Blood 119(25): 5955-5961). PF4 expression was induced by adding copper sulfate (0.5 mM). The induced S2 cells were incubated in serumfree Insect-Xpress™ media (Lonza, Walkersville, MD) for 3-5 days; supernatants were collected, sodium azide (0.02% final concentration) and EDTA (2.5 mM final concentration) were added, and the media were filtered through an Express® PLUS 0.22 μm filter (Millipore Corp., Billerica, MA).
Wild-type (WT) human PF4 in the pT7-7 vector (Novagen, Madison, WI) was expressed in the Escherichia coli strain BL21DE30 pLysS (Stratagene, La Jolla, CA), and purified and characterized as described by Rauova et al. (Rauova, L. et al. (2006). Blood 107(6): 2346-2353) and Park et al., (Blood, 75:1290-1295 (1990)), which are hereby incorporated by reference. Briefly, recombinant protein was isolated from the supernatant of the bacterial lysate by affinity chromatography using a HiTrap high-performance (HP) affinity column. WT PF4 was purified from the media on a heparin HiTrap® column on an ÄTKAPrime™ system (GE Healthcare) at 4° C. in Tris (10 mM), EDTA (1 mM), and pH 8 buffer. Media was loaded in buffer containing NaCl (0.5 M) and PF4 was eluted at 1.8 M NaCl using a linear gradient. Fractions containing purified PF4 as detected by silver staining of 12% NuPAGE Bis-Tris gels (Invitrogen) were pooled, concentrated and buffer exchanged into 50 mM HEPES, 0.5 M NaCl, pH—7.2 using an Amicon® Ultra centrifugal filter (3K NMWL, Millipore Corp). Protein was quantified using a BCA assay.
Compounds of Examples 1-38, 65-196, and 209-228 were then tested for their ability to inhibit PF4 tetramer formation using a cross-linking assay as described in Rauova cited above. Specifically, hPF4 (10 μg/ml) in phosphate-buffered saline (PBS) was incubated at 37° C. for 15 min in the absence of the antagonistic compounds (control sample) and presence of compounds. Cross-linking and SDS-PAGE analysis were then performed as described in “Analysis of PF4 multimerization” of Rauova. The relative amounts of PF4 in each of the monomer, dimer, trimer and tetramer form were calculated by analyzing the samples on a 12% SDS-polyacrylamide gel under reducing conditions. Bands were quantified using the Kodak ID Image Analysis system (Kodak, Rochester, NY). The SigmaMarker™ reagent served as the molecular weight standard. Data was compiled and bar graphed as % PF4 for the tetramer, trimer, dimer, and monomer as a function of concentration for the test and control samples.
This experiment was performed in a manner similar to experiment 1, but PF4 (10 μg/ml) in PBS was independently incubated with compounds of Examples 1-38, 65-196, and 209-228 for 60 min at room temperature, followed by the addition of cross-linking reagent bis(sulfosuccinimidyl)suberate (0.2 mM) for 30 min at room temperature. The reaction was stopped by adding NuPAGE® lithium dodecyl sulfate (LDS) sample buffer, and denatured by heating to 70° C. for 10 min according to the manufacturer's instructions. […]

SMILES	inhibition at 1 µM [%]	inhibition at 3 µM [%]	inhibition at 5 µM [%]	inhibition at 10 µM [%]	IC50 [µM]
O=C(c1ccc2c(c1)C(=O)C(C(=O)CN1CCCC1=O)C2=O)c1ccc2c(c1)C(=O)C(C(=O)CN1CCCC1=O)C2=O (stereo not drawn) [Example 183, 5-{1,3-dioxo-2-[2-(2-oxopyrrolidin-1-yl)acetyl]-2,3-dihydro-1H-indene-5-carbonyl}-2-[2-(2-oxopyrrolidin-1-yl)acetyl]-2,3-dihydro-1H-indene-1,3-dione]	–	–	87	100	4.3
COC(=O)c1ccccc1NC(=O)C1C(=O)c2ccc(S(=O)(=O)c3ccc4c(c3)C(=O)C(C(=O)Nc3ccccc3C(=O)OC)C4=O)cc2C1=O (stereo not drawn) [Example 97, methyl 2-{5-[(2-{[2-(methoxycarbonyl)phenyl]carbamoyl}-1,3-dioxo-2,3-dihydro-1H-inden-5-yl)sulfonyl]-1,3-dioxo-2,3-dihydro-1H-indene-2-amido}benzoate]	–	–	100	100	8.9
O=C(O)CCC(=O)C1C(=O)c2ccc(C(=O)c3ccc4c(c3)C(=O)C(C(=O)CCC(=O)O)C4=O)cc2C1=O (stereo not drawn) [Example 130, 4-{5-[2-(3-carboxypropanoyl)-1,3-dioxo-2,3-dihydro-1H-indene-5-carbonyl]-1,3-dioxo-2,3-dihydro-1H-inden-2-yl}-4-oxobutanoic acid]	–	–	–	–	1.4
CC(C)(C)OC(=O)N1C[C@H](F)C[C@H]1C(=O)C1C(=O)c2ccc(C(=O)c3ccc4c(c3)C(=O)C(C(=O)[C@@H]3C[C@@H](F)CN3C(=O)OC(C)(C)C)C4=O)cc2C1=O (stereo partly drawn) [Example 113, tert-butyl (2S,4R)-2-(5-{2-[(2S,4R)-1-[(tert-butoxy)carbonyl]-4-fluoropyrrolidine-2-carbonyl]-1,3-dioxo-2,3-dihydro-1H-indene-5-carbonyl}-1,3-dioxo-2,3-dihydro-1H-indene-2-carbonyl)-4-fluoropyrrolidine-1-carboxylate]	–	–	68	86	5.4
CC(C)(C)OC(=O)N1CC2(CC(C(=O)C3C(=O)c4ccc(-c5ccc6c(c5)C(=O)C(C(=O)C5CC7(C5)CN(C(=O)OC(C)(C)C)C7)C6=O)cc4C3=O)C2)C1 (stereo not drawn) [Example 211, tert-butyl 6-(2′-{2-[(tert-butoxy)carbonyl]-2-azaspiro[3.3]heptane-6-carbonyl}-1,1′,3,3′-tetraoxo-1H,1′H,2H,2′H,3H,3′H-[5,5′-biindene]-2-carbonyl)-2-azaspiro[3.3]heptane-2-carboxylate]	–	–	76	95	3.3
CC(C)CC(=O)C1C(=O)c2ccc(S(=O)(=O)c3ccc4c(c3)C(=O)C(C(=O)CC(C)C)C4=O)cc2C1=O (stereo not drawn) [Example 145, 2-(3-methylbutanoyl)-5-{[2-(3-methylbutanoyl)-1,3-dioxo-2,3-dihydro-1H-inden-5-yl]sulfonyl}-2,3-dihydro-1H-indene-1,3-dione]	–	–	45	55	–
CC(C)(C)OC(=O)N1CCCC[C@@H]1C(=O)C1C(=O)c2ccc(C(=O)c3ccc4c(c3)C(=O)C(C(=O)[C@H]3CCCCN3C(=O)OC(C)(C)C)C4=O)cc2C1=O (stereo partly drawn) [Example 275, tert-butyl (2R)-2-(5-{2-[(2R)-1-[(tert-butoxy)carbonyl]piperidine-2-carbonyl]-1,3-dioxo-2,3-dihydro-1H-indene-5-carbonyl}-1,3-dioxo-2,3-dihydro-1H-indene-2-carbonyl)piperidine-1-carboxylate]	5	31	–	–	3
O=C(Cn1cccn1)C1C(=O)c2ccc(S(=O)(=O)c3ccc4c(c3)C(=O)C(C(=O)Cn3cccn3)C4=O)cc2C1=O (stereo not drawn) [Example 139, 5-({1,3-dioxo-2-[2-(1H-pyrazol-1-yl)acetyl]-2,3-dihydro-1H-inden-5-yl}sulfonyl)-2-[2-(1H-pyrazol-1-yl)acetyl]-2,3-dihydro-1H-indene-1,3-dione]	–	–	87	97	7
CC(=O)C1C(=O)c2ccc(-c3ccc4c(c3)C(=O)C(C(C)=O)C4=O)cc2C1=O (stereo not drawn) [Example 10, 2-acetyl-5-(2-acetyl-2,3-dihydro-1,3dioxo-1h-inden-5-yl)-2,3-dihydro-1,3-dioxo-1h-indene]	–	–	–	–	1.35
O=C(c1ccc2c(c1)C(=O)C(C(=O)NCc1ccco1)C2=O)c1ccc2c(c1)C(=O)C(C(=O)NCc1ccco1)C2=O (stereo not drawn) [Example 19, 5,5′-carbonylbis(1,3-dioxo-indan-2-carboxylic acid (furan-2-ylmethyl)-amide)]	–	–	29	56	–
O=C1c2ccc(S(=O)(=O)c3ccc4c(c3)C(=O)C(C(=O)C3CCC3)C4=O)cc2C(=O)C1C(=O)C1CCC1 (stereo not drawn) [Example 296, 2-cyclobutanecarbonyl-5-[(2-cyclobutanecarbonyl-1,3-dioxo-2,3-dihydro-1H-inden-5-yl)sulfonyl]-2,3-dihydro-1H-indene-1,3-dione]	22	36	–	–	–
CC(C)(C)OC(=O)NCCC(=O)C1C(=O)c2ccc(S(=O)(=O)c3ccc4c(c3)C(=O)C(C(=O)CCNC(=O)OC(C)(C)C)C4=O)cc2C1=O (stereo not drawn) [Example 164, tert-butyl N-[3-(5-{[2-(3-{[(tert-butoxy)carbonyl]amino}propanoyl)-1,3-dioxo-2,3-dihydro-1H-inden-5-yl]sulfonyl}-1,3-dioxo-2,3-dihydro-1H-inden-2-yl)-3-oxopropyl]carbamate]	–	–	70	82	5

More lines, main results first:

inhibition at 1 µM [%]	inhibition at 3 µM [%]	SMILES	inhibition at 5 µM [%]	inhibition at 10 µM [%]	IC50 [µM]
2	5	COCCOCCNCC(=O)C1C(=O)c2ccc(Oc3ccc4c(c3)C(=O)C(C(=O)CNCCOCCOC)C4=O)cc2C1=O (stereo not drawn) [Example 394, 2-(2-{[2-(2-methoxyethoxy)ethyl]amino}acetyl)-5-{[2-(2-{[2-(2-methoxyethoxy)ethyl]amino}acetyl)-1,3-dioxo-2,3-dihydro-1H-inden-5-yl]oxy}-2,3-dihydro-1H-indene-1,3-dione]	–	–	–
26	42	N#CC1C(=O)c2ccc(C(=O)c3ccc4c(c3)C(=O)C(C#N)C4=O)cc2C1=O (stereo not drawn) [Example 250, 5-(2-cyano-1,3-dioxo-2,3-dihydro-1H-indene-5-carbonyl)-1,3-dioxo-2,3-dihydro-1H-indene-2-carbonitrile]	–	–	3
1	45	O=C(NC1CCOCC1)C1C(=O)c2ccc(S(=O)(=O)c3ccc4c(c3)C(=O)C(C(=O)NC3CCOCC3)C4=O)cc2C1=O (stereo not drawn) [Example 368, N-(oxan-4-yl)-5-({2-[(oxan-4-yl)carbamoyl]-1,3-dioxo-2,3-dihydro-1H-inden-5-yl}sulfonyl)-1,3-dioxo-2,3-dihydro-1H-indene-2-carboxamide]	–	–	–
